Results: patent publication US20180169108A1, “Drug Combinations For the Treatment of HIV” (The Johns Hopkins University, priority 2015, published 2018)

What was measured:
[1] = test system: HIV-1 (latent, in resting CD4+ T cells from infected individuals); details: earlier study of the inventors (32); cited from earlier work
[2] = test system: HIV-1 (latent, in resting CD4+ T cells from infected individuals); type: cell-based; details: for virus release into supernatant (in words): 24 hours of treatment; for ρ, median fold change in supernatant HIV-1 mRNA versus DMSO control observed in the ex vivo assay: lower bound, as no virion production was detectable for DMSO
Protocol: Production and release of HIV-1 virions by LRA-treated rCD4s indicates complete reversal of latency in those cells. To assess whether combinations of LRAs induced rapid virus release, HIV-1 mRNA were measured in the culture supernatants of LRA-treated rCD4s from infected individuals on suppressive ART using an RT-qPCR assay previously shown to provide sensitive and accurate quantitation of HIV-1 virion production (45). […] The Bliss independence model was applied to quantitate interactions between LRAs.
(§1) The final DMSO percentage was 0.2% (v/v) for all single and combination treatments. Concentrations were chosen based on previous ex vivo studies with rCD4s from infected individuals as well as studies using in vitro latency models (13, 28, 29, 32-34) with the aim of selecting clinically relevant concentrations.
HIV-1 mRNA was extracted from 0.25 mL of supernatant from the LRA-treated cell cultures described above with 0.75 mL of TRIzol® LS Reagent (Invitrogen) according to the manufacturer's protocol. cDNA synthesis and real-time quantitative PCR was performed as described (32). […] The limit of detection for each qPCR was 10 copies per reaction, which scaled to a limit of detection of 150 copies per mL of culture supernatant. Primers and probes are listed below. Molecular standard curve was generated as described above.
(§2) The Bliss independence model, one method to predict the expected combined effects of multiple drugs assuming the drugs act through independent mechanisms, as a metric by which to evaluate the latency reversing activity of drug combinations was used. The Bliss independence model is defined by the equation:
(§3) If Dfaxy=0, then the drug combination follows the Bliss model for independent action. […] In this analysis, the fraction affected was calculated as follows for intracellular HIV-1 mRNA and for supernatant HIV-1 virion quantitation:
(§4) fax=(copies drug X−copies DMSO control)/(copies PMA/I−copies DMSO control)

[3] = test system: HIV-1 (latent, in resting CD4+ T cells from infected individuals)
Excerpt: as §1, §2, §3, §4

[4] = continuous infusion for 14 or 21 days; cited from earlier work
[5] = cancer patients; cited from earlier work
[6] = test system: HIV-1; details: patients on ART; cited from earlier work
[7] = test system: HIV-1 (latent, in resting CD4+ T cells from infected individuals); details: earlier study (32); cited from earlier work

Structure (SMILES) | latency reversal in rCD4s from infected individuals (in words) [1] | virus release into supernatant (in words) [2] | ρ, median fold change in supernatant HIV-1 mRNA versus DMSO control observed in the ex vivo assay [2] | also measured
Cc1sc2c(c1C)C(c1ccc(Cl)cc1)=N[C@@H](CC(=O)OC(C)(C)C)c1nnc(C)n1-2 [JQ1] | only minimally active |  |  | 
CCC/C=C/C=C/C(=O)O[C@H]1/C(=C/C(=O)OC)C[C@H]2C[C@H]([C@@H](C)O)OC(=O)C[C@H](O)C[C@@H]3C[C@H](OC(C)=O)C(C)(C)[C@](O)(C[C@@H]4C/C(=C/C(=O)OC)C[C@H](/C=C/C(C)(C)[C@]1(O)O2)O4)O3 [bryostatin-1] |  | significant virus release | 120 | induction of intracellular HIV-1 mRNA (significance, in words) ([3]; 1 nM bryostatin-1): did not induce significant intracellular HIV-1 mRNA; mean increase in intracellular HIV-1 mRNA, fold induction relative to DMSO control ([3]; rCD4s from infected individuals on ART, 24 h, 10 nM bryostatin-1, 300 nM prostratin, 40 nM romidepsin, 50 ng/mL PMA + 1 μM ionomycin): 12.8 fold; approximated maximally tolerated dose [4]: ~16 μg/m2/day; clinical tolerability (in words) [5]: dose limiting toxicities grade 3/4 myalgia, arthralgia, and weakness; intracellular HIV-1 mRNA induction relative to the maximum reactivation elicited by T cell activation [1]: four
C/C=C1\NC(=O)[C@H]2CSSCC/C=C/[C@H](CC(=O)N[C@H](C(C)C)C(=O)N2)OC(=O)[C@H](C(C)C)NC1=O [romidepsin] |  |  | 15 | 
CC(=O)O[C@@]12C[C@@H](C)[C@@]3(O)[C@@H](C=C(CO)C[C@]4(O)C(=O)C(C)=C[C@@H]34)[C@@H]1C2(C)C [prostratin] |  | significant virus release | 209 | 
O=C(CCCCCCC(=O)Nc1ccccc1)NO [vorinostat] | only minimally active |  |  | increase in plasma HIV-1 RNA using quantitative clinical assays (in words) [6]: no increases in plasma HIV-1 RNA; viral production ex vivo (in words) [7]: fail to stimulate detectable viral production
